Laboratory results taken from ChEMBL document CHEMBL1132690, “Design, synthesis, and biological evaluation of potent thiazine- and thiazepine-based matrix metalloproteinase inhibitors” (J Med Chem, 1999).

molecular target: T1, Matrilysin (Homo sapiens, UniProt P09237)
T1 sequence (P09237 whole entry): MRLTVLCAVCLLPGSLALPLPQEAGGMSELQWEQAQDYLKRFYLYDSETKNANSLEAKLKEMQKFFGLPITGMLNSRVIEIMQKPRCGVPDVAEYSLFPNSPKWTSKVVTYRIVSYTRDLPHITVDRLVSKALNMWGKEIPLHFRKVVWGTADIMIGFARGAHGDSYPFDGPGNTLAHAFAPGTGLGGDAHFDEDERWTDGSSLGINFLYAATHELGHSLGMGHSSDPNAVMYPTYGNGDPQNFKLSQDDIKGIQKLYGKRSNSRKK
Description: Inhibition of matrilysin (Matrix metalloprotease-7)

Ki [nM]	SMILES
54	CC1(C)SCCN(S(=O)(=O)c2ccc(Oc3ccncc3)cc2)[C@H]1C(=O)NO [PRINOMASTAT]

molecular target: Matrix metalloproteinase-9 (Homo sapiens, UniProt P14780)
Sequence (P14780 whole entry): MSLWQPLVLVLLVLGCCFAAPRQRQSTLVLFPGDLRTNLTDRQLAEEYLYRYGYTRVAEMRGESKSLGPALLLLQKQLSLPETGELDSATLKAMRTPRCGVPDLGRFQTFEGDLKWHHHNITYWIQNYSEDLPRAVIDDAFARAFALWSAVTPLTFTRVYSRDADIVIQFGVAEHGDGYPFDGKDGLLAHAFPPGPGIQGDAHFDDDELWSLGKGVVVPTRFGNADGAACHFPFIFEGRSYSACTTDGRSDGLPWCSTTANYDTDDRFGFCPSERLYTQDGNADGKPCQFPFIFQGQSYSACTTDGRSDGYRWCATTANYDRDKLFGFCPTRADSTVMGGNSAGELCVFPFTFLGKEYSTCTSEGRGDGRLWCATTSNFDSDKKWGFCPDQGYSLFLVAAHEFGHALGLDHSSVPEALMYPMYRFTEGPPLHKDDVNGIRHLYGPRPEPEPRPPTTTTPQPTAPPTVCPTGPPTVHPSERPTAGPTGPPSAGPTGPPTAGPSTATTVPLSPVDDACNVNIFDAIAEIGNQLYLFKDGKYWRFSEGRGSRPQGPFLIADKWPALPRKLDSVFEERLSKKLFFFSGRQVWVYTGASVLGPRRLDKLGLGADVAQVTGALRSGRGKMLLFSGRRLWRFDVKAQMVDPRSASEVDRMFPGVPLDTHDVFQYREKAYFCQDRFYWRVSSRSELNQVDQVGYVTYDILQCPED
Description: Inhibition of gelatinase-B (Matrix metalloprotease-9)

IC50 [nM]	SMILES
1.9	COc1ccc(S(=O)(=O)N2CCCSC(C)(C)[C@@H]2C(=O)NO)cc1
1390	COc1ccc(S(=O)(=O)N2CCCSC(C)(C)C2C(=O)NO)cc1 (single isomer, unassigned)
3.6	COc1ccc(S(=O)(=O)N2CCCS(=O)(=O)C(C)(C)[C@@H]2C(=O)NO)cc1
0.9	COc1ccc(S(=O)(=O)N2CCSC(C)(C)[C@@H]2C(=O)NO)cc1
3.7	COc1ccc(S(=O)(=O)N2CCCCCSC(C)(C)[C@@H]2C(=O)NO)cc1
0.5	COc1ccc(S(=O)(=O)N2CCCCC(C)(C)[C@@H]2C(=O)NO)cc1

molecular target: Neutrophil collagenase (Homo sapiens, UniProt P22894)
Sequence (P22894 whole entry): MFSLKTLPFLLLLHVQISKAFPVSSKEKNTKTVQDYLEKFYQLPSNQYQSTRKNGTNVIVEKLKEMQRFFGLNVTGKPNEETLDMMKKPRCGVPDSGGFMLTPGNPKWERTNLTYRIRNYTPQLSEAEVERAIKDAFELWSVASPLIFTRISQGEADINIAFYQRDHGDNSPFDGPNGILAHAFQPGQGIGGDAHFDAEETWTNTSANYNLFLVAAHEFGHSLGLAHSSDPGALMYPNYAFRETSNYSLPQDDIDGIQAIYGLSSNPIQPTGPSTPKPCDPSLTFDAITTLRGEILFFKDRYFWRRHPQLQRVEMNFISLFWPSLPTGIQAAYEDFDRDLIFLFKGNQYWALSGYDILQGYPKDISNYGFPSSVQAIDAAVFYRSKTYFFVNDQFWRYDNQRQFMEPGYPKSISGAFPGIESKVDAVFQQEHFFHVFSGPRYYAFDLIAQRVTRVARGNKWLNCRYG
Description: Inhibition of neutrophil collagenase (Matrix metalloprotease-8)

IC50 [nM]	SMILES
1.4	COc1ccc(S(=O)(=O)N2CCCSC(C)(C)[C@@H]2C(=O)NO)cc1
< 0.4	CC1(C)SCCN(S(=O)(=O)c2ccc(Oc3ccncc3)cc2)[C@H]1C(=O)NO [PRINOMASTAT]
881	COc1ccc(S(=O)(=O)N2CCCSC(C)(C)C2C(=O)NO)cc1 (single isomer, unassigned)
2.4	COc1ccc(S(=O)(=O)N2CCCS(=O)(=O)C(C)(C)[C@@H]2C(=O)NO)cc1
0.6	COc1ccc(S(=O)(=O)N2CCCCCSC(C)(C)[C@@H]2C(=O)NO)cc1
1.9	COc1ccc(S(=O)(=O)N2CCCCC(C)(C)[C@@H]2C(=O)NO)cc1

molecular target: T1, Matrilysin; remark: another data set of the same source
Description: In vitro inhibitory activity against matrilysin (matrix metalloprotease-7).

SMILES	IC50 [nM]
CCCc1ccc(S(=O)(=O)N2CCCSC(C)(C)[C@@H]2C(=O)NO)cc1	637
COc1ccc(S(=O)(=O)N2[C@@H](c3ccccc3)CCSC(C)(C)[C@@H]2C(=O)NO)cc1	110
COc1ccc(S(=O)(=O)N2CCCCC2C(=O)NO)cc1 (configuration not stated)	313
COc1ccc(S(=O)(=O)N2CCS(=O)(=O)CC2C(=O)NO)cc1 (configuration not stated)	12800
CC1(C)SCCCN(S(=O)(=O)c2ccc(Oc3ccncc3)cc2)[C@H]1C(=O)NO	105
COc1ccc(S(=O)(=O)N2CCSCC2C(=O)NO)cc1 (configuration not stated)	2070
COc1ccc(S(=O)(=O)N2CCOCCS(=O)(=O)C(C)(C)[C@@H]2C(=O)NO)cc1	183
COc1ccc(S(=O)(=O)N2CCOCCSC(C)(C)[C@@H]2C(=O)NO)cc1	< 100
COCCOc1ccc(S(=O)(=O)N2CCCSC(C)(C)[C@@H]2C(=O)NO)cc1	509
COc1ccc(S(=O)(=O)N2CCCSCC2C(=O)NO)cc1 (configuration not stated)	1100
COc1ccc(S(=O)(=O)N2CCCSC(C)(C)C2C(=O)NO)cc1 (single isomer, unassigned)	> 10000

More lines, now with the values ahead:

IC50 [nM]	SMILES
30	COc1ccc(S(=O)(=O)N2CCCSC(C)(C)[C@@H]2C(=O)NO)cc1
91	CC1(C)SCCN(S(=O)(=O)c2ccc(Oc3ccncc3)cc2)[C@H]1C(=O)NO [PRINOMASTAT]
27	CCCCOc1ccc(S(=O)(=O)N2CCCS(=O)(=O)C(C)(C)[C@@H]2C(=O)NO)cc1
41	COc1ccc(S(=O)(=O)N2CCCS(=O)(=O)C(C)(C)[C@@H]2C(=O)NO)cc1
23	COc1ccc(S(=O)(=O)N2CCSC(C)(C)[C@@H]2C(=O)NO)cc1
30	COc1ccc(S(=O)(=O)N2CCCCCSC(C)(C)[C@@H]2C(=O)NO)cc1
18	COc1ccc(S(=O)(=O)N2CCCCC(C)(C)[C@@H]2C(=O)NO)cc1

molecular target: T2, Interstitial collagenase (Homo sapiens, UniProt P03956)
T2 sequence (P03956 whole entry): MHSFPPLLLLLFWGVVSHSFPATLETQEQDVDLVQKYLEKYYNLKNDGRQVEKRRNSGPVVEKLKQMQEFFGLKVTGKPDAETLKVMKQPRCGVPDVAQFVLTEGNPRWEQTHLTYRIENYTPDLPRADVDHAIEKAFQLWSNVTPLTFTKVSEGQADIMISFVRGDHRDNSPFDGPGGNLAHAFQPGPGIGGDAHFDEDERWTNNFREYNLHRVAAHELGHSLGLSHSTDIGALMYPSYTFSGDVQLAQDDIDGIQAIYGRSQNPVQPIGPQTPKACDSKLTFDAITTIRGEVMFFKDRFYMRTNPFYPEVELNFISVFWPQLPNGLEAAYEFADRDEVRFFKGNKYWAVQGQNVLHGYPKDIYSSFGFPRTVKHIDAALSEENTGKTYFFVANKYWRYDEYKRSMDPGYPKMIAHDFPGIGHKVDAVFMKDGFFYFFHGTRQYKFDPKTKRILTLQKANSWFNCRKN
Description: In vitro inhibitory activity against truncated collagenase-1 (matrix metalloprotease-1).

SMILES	IC50 [nM]
CCCc1ccc(S(=O)(=O)N2CCCSC(C)(C)[C@@H]2C(=O)NO)cc1	22
COc1ccc(S(=O)(=O)N2[C@@H](c3ccccc3)CCSC(C)(C)[C@@H]2C(=O)NO)cc1	271
COc1ccc(S(=O)(=O)N2CCS(=O)(=O)CC2C(=O)NO)cc1 (configuration not stated)	688
CC1(C)SCCCN(S(=O)(=O)c2ccc(Oc3ccncc3)cc2)[C@H]1C(=O)NO	5.7
COc1ccc(S(=O)(=O)N2CCSCC2C(=O)NO)cc1 (configuration not stated)	62
COc1ccc(S(=O)(=O)N2CCOCCS(=O)(=O)C(C)(C)[C@@H]2C(=O)NO)cc1	1.9
COc1ccc(S(=O)(=O)N2CCOCCSC(C)(C)[C@@H]2C(=O)NO)cc1	< 1
COCCOc1ccc(S(=O)(=O)N2CCCSC(C)(C)[C@@H]2C(=O)NO)cc1	42
COc1ccc(S(=O)(=O)N2CCCSCC2C(=O)NO)cc1 (configuration not stated)	64
COc1ccc(S(=O)(=O)N2CCCSC(C)(C)C2C(=O)NO)cc1 (single isomer, unassigned)	7780

Second part, the compound after the results:

IC50 [nM]	SMILES
0.8	COc1ccc(S(=O)(=O)N2CCCSC(C)(C)[C@@H]2C(=O)NO)cc1
19	CCCCOc1ccc(S(=O)(=O)N2CCCS(=O)(=O)C(C)(C)[C@@H]2C(=O)NO)cc1
0.4	COc1ccc(S(=O)(=O)N2CCSC(C)(C)[C@@H]2C(=O)NO)cc1
3	COc1ccc(S(=O)(=O)N2CCCCCSC(C)(C)[C@@H]2C(=O)NO)cc1
2.4	COc1ccc(S(=O)(=O)N2CCCCC(C)(C)[C@@H]2C(=O)NO)cc1

molecular target: 72 kDa type IV collagenase (Homo sapiens, UniProt P08253)
Sequence (P08253 whole entry): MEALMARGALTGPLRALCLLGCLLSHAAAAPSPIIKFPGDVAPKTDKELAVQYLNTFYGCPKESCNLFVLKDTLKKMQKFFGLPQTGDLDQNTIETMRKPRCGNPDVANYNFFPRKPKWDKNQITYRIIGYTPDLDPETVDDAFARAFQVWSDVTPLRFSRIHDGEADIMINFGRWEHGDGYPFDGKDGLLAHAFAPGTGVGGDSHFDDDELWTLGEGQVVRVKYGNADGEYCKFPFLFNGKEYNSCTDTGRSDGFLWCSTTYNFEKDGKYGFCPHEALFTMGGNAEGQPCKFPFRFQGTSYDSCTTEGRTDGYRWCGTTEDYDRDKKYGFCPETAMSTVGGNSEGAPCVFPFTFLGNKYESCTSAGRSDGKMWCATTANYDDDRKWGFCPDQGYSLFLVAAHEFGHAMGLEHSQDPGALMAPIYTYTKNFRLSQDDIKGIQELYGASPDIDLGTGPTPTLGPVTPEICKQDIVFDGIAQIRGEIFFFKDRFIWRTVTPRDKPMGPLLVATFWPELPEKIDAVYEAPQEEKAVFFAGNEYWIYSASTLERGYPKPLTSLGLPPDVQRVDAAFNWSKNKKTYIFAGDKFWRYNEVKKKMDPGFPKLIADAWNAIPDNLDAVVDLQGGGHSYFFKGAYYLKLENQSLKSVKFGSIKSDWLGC
Description: In vitro inhibitory activity against gelatinase-A (matrix metalloprotease-2).

SMILES	IC50 [nM]
CCCc1ccc(S(=O)(=O)N2CCCSC(C)(C)[C@@H]2C(=O)NO)cc1	35
CC1(C)SCCCN(S(=O)(=O)c2ccc(Oc3ccncc3)cc2)[C@H]1C(=O)NO	< 0.4
COc1ccc(S(=O)(=O)N2CCOCCSC(C)(C)[C@@H]2C(=O)NO)cc1	3.5
COCCOc1ccc(S(=O)(=O)N2CCCSC(C)(C)[C@@H]2C(=O)NO)cc1	11.4
COc1ccc(S(=O)(=O)N2CCCSC(C)(C)C2C(=O)NO)cc1 (single isomer, unassigned)	2900

Results, then the compound that gave them:

IC50 [nM]	SMILES
2.7	COc1ccc(S(=O)(=O)N2CCCSC(C)(C)[C@@H]2C(=O)NO)cc1
1.2	CCCCOc1ccc(S(=O)(=O)N2CCCS(=O)(=O)C(C)(C)[C@@H]2C(=O)NO)cc1
7.8	COc1ccc(S(=O)(=O)N2CCCS(=O)(=O)C(C)(C)[C@@H]2C(=O)NO)cc1
1.4	COc1ccc(S(=O)(=O)N2CCSC(C)(C)[C@@H]2C(=O)NO)cc1
2.4	COc1ccc(S(=O)(=O)N2CCCCCSC(C)(C)[C@@H]2C(=O)NO)cc1
1.4	COc1ccc(S(=O)(=O)N2CCCCC(C)(C)[C@@H]2C(=O)NO)cc1

molecular target: Collagenase 3 (Homo sapiens, UniProt P45452)
Description: In vitro inhibitory activity against collagenase-3 (matrix metalloprotease-13).

SMILES	IC50 [nM]
CCCc1ccc(S(=O)(=O)N2CCCSC(C)(C)[C@@H]2C(=O)NO)cc1	7.5
COc1ccc(S(=O)(=O)N2CCCCC2C(=O)NO)cc1 (configuration not stated)	0.5
COc1ccc(S(=O)(=O)N2CCS(=O)(=O)CC2C(=O)NO)cc1 (configuration not stated)	18.4
CC1(C)SCCCN(S(=O)(=O)c2ccc(Oc3ccncc3)cc2)[C@H]1C(=O)NO	< 0.4
COc1ccc(S(=O)(=O)N2CCSCC2C(=O)NO)cc1 (configuration not stated)	1
COc1ccc(S(=O)(=O)N2CCOCCS(=O)(=O)C(C)(C)[C@@H]2C(=O)NO)cc1	3.3
COc1ccc(S(=O)(=O)N2CCOCCSC(C)(C)[C@@H]2C(=O)NO)cc1	0.2
COCCOc1ccc(S(=O)(=O)N2CCCSC(C)(C)[C@@H]2C(=O)NO)cc1	5.6
COc1ccc(S(=O)(=O)N2CCCSCC2C(=O)NO)cc1 (configuration not stated)	1.9
COc1ccc(S(=O)(=O)N2CCCSC(C)(C)C2C(=O)NO)cc1 (single isomer, unassigned)	2330

Second part, the compound after the results:

IC50 [nM]	SMILES
0.9	COc1ccc(S(=O)(=O)N2CCCSC(C)(C)[C@@H]2C(=O)NO)cc1
0.4	CCCCOc1ccc(S(=O)(=O)N2CCCS(=O)(=O)C(C)(C)[C@@H]2C(=O)NO)cc1
2.1	COc1ccc(S(=O)(=O)N2CCCS(=O)(=O)C(C)(C)[C@@H]2C(=O)NO)cc1
1	COc1ccc(S(=O)(=O)N2CCSC(C)(C)[C@@H]2C(=O)NO)cc1
1	COc1ccc(S(=O)(=O)N2CCCCCSC(C)(C)[C@@H]2C(=O)NO)cc1
